What all share (test): Panel of 270 human kinases (Millipore)
What all share (format): biochemical

Experiment [1] concerns the target T1, Met(Y1248C) (Homo sapiens, UniProt P08581, Y1230C).
T1 construct: purchased Millipore Corporation
The procedure: (§1) The inhibitory activity of selected compounds of the invention (A335, A405, A410, A261, A300 and A363) was evaluated against a panel of 270 different human kinase enzymes by Millipore Corporation. The % Inhibition was determined by the formula: % Inhibition=100×(1−(experimental value−background value)/(high activity control−background value)).

The target in experiment [2] is T2, MUSK (Homo sapiens, UniProt O15146).
T2 construct: purchased Millipore Corporation
T2 sequence (O15146 24-869): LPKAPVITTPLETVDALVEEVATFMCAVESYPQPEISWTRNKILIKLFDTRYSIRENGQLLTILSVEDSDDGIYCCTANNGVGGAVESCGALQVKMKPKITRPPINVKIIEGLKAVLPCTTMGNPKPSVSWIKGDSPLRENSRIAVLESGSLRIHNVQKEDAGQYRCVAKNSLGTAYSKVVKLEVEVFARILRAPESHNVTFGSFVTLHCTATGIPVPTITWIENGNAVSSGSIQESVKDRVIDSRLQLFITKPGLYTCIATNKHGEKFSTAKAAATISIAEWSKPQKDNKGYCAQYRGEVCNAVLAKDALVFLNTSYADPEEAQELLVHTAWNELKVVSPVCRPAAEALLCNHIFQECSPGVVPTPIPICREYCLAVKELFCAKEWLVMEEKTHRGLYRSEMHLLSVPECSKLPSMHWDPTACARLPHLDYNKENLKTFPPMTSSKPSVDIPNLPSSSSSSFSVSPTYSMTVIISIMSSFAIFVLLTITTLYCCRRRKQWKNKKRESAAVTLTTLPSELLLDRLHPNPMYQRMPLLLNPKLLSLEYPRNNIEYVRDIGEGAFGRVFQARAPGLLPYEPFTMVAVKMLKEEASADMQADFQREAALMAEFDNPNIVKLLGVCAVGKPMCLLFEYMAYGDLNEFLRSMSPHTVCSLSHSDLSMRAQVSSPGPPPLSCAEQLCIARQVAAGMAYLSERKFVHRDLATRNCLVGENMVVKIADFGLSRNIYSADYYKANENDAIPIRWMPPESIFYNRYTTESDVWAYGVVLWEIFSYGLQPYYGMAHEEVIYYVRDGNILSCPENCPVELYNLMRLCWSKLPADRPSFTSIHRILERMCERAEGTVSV
The procedure:
as §1

Experiment [3] concerns the target T3, MELK (Homo sapiens, UniProt Q14680).
T3 construct: purchased Millipore Corporation
The procedure: as §1

Experiment [4] has as its target T4, cKit (V560G) (Homo sapiens, UniProt P10721, V560G).
T4 construct: purchased Millipore Corporation
The procedure: as §1

Experiment [5] has as its target T5, ALK (Homo sapiens, UniProt Q9UM73).
T5 construct: purchased Millipore Corporation
The procedure:
as §1

The target of experiment [6] is T6, JNK3 (Homo sapiens, UniProt P53779).
T6 construct: purchased Millipore Corporation
The procedure:
as §1

The target in experiment [7] is T7, MAPK2 (Homo sapiens, UniProt P28482).
T7 construct: purchased Millipore Corporation
The procedure: as §1

T5 sequence (Q9UM73 19-1620): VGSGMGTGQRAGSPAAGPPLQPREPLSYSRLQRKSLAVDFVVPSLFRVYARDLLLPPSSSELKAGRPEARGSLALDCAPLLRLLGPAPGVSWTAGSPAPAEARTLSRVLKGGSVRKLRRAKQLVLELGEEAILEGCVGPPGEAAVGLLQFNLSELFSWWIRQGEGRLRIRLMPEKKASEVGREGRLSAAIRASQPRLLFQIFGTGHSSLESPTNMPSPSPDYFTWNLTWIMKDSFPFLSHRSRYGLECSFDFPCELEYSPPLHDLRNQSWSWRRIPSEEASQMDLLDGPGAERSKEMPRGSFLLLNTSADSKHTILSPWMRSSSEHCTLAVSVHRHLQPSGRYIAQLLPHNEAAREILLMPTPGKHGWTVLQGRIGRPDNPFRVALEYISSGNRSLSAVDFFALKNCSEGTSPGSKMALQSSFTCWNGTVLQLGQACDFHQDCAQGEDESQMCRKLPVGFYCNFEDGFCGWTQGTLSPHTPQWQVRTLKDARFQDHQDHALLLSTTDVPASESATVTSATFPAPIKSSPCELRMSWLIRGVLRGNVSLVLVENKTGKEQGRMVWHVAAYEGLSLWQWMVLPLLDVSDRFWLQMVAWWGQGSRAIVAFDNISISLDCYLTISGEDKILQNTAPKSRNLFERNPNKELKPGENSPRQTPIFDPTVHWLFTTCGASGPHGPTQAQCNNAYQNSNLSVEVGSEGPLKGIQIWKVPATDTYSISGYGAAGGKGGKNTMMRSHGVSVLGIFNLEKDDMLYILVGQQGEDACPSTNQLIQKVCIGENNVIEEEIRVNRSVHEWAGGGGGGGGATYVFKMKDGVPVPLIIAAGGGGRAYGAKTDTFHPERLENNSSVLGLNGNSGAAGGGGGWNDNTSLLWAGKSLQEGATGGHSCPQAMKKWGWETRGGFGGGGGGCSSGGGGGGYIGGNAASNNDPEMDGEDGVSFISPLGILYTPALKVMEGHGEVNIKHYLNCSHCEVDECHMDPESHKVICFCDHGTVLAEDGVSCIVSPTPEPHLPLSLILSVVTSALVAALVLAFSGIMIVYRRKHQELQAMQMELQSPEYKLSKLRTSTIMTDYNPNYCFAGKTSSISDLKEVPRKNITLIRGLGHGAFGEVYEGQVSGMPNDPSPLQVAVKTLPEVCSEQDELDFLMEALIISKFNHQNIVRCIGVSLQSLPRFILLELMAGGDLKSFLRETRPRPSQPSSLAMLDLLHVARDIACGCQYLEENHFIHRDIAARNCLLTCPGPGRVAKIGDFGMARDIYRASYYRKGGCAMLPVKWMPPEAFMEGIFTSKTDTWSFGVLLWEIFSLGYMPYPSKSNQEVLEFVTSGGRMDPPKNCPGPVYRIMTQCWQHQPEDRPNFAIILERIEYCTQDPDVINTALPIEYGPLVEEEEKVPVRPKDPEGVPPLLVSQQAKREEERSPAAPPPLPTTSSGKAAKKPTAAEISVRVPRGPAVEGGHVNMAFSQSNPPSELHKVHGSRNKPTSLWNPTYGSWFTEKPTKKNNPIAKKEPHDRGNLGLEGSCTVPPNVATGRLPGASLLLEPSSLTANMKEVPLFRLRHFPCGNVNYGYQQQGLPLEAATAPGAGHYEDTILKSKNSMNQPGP
T1 sequence (P08581 25-1408 isoform P08581-2 Y1248C limits assumed): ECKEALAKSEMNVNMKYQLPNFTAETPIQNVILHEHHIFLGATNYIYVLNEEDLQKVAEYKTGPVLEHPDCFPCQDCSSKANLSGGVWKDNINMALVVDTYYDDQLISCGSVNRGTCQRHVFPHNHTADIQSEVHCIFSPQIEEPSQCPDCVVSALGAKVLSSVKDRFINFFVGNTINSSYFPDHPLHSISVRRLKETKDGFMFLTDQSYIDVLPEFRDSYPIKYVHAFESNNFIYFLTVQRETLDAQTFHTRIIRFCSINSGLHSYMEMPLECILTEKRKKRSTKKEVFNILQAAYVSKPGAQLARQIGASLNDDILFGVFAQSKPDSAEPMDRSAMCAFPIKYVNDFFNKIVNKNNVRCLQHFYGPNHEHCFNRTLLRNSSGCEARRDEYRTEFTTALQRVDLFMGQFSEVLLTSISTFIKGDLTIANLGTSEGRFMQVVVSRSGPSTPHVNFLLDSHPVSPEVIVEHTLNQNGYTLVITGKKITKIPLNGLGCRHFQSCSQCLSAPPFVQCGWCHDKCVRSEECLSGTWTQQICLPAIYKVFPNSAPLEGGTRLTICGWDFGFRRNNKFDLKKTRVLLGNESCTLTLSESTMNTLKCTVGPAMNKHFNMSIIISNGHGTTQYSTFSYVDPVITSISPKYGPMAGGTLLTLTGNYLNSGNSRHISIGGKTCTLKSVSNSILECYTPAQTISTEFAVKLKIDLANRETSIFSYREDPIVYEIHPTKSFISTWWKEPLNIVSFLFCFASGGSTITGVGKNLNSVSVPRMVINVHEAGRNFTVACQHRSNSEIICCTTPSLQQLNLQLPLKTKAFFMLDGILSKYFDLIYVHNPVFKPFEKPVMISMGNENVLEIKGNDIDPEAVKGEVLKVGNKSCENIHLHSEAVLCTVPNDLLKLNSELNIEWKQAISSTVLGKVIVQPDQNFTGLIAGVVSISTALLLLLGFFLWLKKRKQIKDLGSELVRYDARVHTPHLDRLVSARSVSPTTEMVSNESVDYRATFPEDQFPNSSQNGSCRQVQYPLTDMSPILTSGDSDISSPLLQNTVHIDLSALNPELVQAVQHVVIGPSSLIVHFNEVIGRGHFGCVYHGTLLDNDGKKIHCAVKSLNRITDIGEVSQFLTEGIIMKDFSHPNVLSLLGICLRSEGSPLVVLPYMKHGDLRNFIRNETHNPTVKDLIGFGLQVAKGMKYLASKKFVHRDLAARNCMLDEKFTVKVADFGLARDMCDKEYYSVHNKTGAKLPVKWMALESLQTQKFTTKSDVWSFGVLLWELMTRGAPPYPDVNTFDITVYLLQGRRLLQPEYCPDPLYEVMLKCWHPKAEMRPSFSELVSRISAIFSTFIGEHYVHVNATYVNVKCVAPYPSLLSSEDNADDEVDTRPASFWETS
T7 sequence (P28482 whole entry): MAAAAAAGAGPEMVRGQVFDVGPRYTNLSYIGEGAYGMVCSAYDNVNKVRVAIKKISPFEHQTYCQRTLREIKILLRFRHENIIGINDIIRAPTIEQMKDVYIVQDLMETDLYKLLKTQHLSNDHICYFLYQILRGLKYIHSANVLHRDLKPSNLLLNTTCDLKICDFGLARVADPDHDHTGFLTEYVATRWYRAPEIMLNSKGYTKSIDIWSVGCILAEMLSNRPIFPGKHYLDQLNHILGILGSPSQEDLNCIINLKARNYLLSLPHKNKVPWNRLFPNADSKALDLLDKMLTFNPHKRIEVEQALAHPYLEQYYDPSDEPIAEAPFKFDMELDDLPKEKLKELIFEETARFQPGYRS
T4 sequence (P10721 26-976 V560G): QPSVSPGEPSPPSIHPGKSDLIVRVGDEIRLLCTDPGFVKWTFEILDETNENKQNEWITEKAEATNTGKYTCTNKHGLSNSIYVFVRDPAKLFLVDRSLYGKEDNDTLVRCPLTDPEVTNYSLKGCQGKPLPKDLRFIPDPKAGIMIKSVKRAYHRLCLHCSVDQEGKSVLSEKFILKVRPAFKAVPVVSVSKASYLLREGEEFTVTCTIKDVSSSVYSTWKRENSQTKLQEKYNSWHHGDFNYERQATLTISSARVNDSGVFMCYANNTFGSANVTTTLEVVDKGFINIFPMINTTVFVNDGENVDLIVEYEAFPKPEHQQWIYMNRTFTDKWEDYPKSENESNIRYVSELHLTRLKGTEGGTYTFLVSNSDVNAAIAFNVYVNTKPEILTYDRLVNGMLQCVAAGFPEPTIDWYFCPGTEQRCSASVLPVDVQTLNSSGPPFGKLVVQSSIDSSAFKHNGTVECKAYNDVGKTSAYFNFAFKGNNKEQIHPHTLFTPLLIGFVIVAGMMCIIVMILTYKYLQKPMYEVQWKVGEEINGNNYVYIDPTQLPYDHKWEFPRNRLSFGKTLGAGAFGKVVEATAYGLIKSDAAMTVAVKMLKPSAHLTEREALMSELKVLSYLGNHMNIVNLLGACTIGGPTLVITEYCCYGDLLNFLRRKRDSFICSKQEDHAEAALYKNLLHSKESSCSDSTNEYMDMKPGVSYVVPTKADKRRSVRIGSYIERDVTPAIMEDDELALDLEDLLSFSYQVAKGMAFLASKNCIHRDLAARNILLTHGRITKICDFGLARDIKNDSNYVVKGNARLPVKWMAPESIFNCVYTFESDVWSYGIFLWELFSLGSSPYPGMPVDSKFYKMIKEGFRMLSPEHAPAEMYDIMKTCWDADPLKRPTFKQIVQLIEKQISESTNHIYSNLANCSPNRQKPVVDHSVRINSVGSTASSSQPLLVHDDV
T3 sequence (Q14680 whole entry): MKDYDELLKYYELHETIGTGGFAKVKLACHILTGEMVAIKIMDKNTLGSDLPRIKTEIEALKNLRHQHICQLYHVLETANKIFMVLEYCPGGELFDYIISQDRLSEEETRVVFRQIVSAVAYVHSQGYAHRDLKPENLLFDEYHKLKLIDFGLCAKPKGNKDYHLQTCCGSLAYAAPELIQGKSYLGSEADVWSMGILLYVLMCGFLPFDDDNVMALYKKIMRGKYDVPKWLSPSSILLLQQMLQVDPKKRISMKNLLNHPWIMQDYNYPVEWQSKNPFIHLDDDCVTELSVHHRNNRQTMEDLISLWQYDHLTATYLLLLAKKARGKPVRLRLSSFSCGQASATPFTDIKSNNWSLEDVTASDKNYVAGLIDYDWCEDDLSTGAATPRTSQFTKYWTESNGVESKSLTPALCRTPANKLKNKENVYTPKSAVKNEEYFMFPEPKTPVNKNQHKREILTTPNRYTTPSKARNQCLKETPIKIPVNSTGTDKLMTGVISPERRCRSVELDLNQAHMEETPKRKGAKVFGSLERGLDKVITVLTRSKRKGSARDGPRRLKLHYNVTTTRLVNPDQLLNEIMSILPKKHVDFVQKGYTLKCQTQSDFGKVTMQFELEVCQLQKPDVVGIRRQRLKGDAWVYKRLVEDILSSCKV

For `CC(C)C[C@@H](NC(=O)c1ccc2[nH]nc(-c3ccc(N4CCN(C5COC5)CC4)cc3)c2c1)c1ccccc1Cl` [Example A300, (R)-N-(1-(2-chlorophenyl)-3-methylbutyl)-3-(4-(4-(oxetan-3-yl)piperazin-1-yl)phenyl)-1H-indazole-5-carboxamide], the inhibition at 1 µM in experiment [1] came out at 40%; in experiment [2], 54%; in experiment [3], 51%; in experiment [4], 76%; in experiment [5], 0%; in experiment [6], 48%. This compound also registered an inhibition at 1 µM in experiment [7] of 5%.
As to `CC(C)[C@H](NC(=O)c1ccc2[nH]nc(-c3ccc(OC4CC5CCC(C4)N5C4COC4)cc3)c2c1)c1ccccc1Cl` (some centres unmarked) [Example A335], the inhibition at 1 µM in experiment [1] turned out to be 42%; in experiment [2] it was 91%; in experiment [3], 97%; in experiment [4], 66%; in experiment [5] it was 7%; in experiment [6], 85%. This compound had an inhibition at 1 µM in experiment [7] of 0%.

The values are drawn from patent publication US9580390B2, “Indazole compounds as kinase inhibitors and method of treating cancer with same” (University Health Network, priority 2011, dated 2017).
